Tests used:
[1] = system: Human immunodeficiency virus 1; test: In vitro antiviral activity against HIV-1 (L100I).; format: functional
[2] = biological target: Human immunodeficiency virus type 1 reverse transcriptase (Human immunodeficiency virus 1) (UniProt Q72547); conditions: Plasma
Description: Effect of human plasma protein binding on antiviral efficacy.

[3] = system: Human immunodeficiency virus 1; test: Antiviral activity against HIV-1 K103N mutant virus.; format: functional
[4] = system: Human immunodeficiency virus 1; test: Antiviral activity was evaluated for the inhibition of wild-type RF strain of HIV-1 in an in vitro enzyme assay.; format: functional
[5] = system: Human immunodeficiency virus 1; test: Antiviral activity toward K103N mutant HIV-1 virus as protein binding adjusted (PB adj).; format: functional
[6] = biological target: Human immunodeficiency virus type 1 reverse transcriptase (Human immunodeficiency virus 1, UniProt Q72547); test: Inhibition of HIV-1 reverse transcriptase.
[7] = biological target: Human immunodeficiency virus type 1 reverse transcriptase (Human immunodeficiency virus 1) (UniProt Q72547); test: Compound was evaluated for the inhibition of HIV-1 Reverse transcriptase
[8] = system: Human immunodeficiency virus 1; test: Compound was evaluated for the inhibition of wilde-type RF strain of HIV-1; format: functional
MT2 [9] = test: Antiviral activity against RF strain of HIV in MT-2 cells by RNA assay; format: functional; conditions: Homo sapiens
[10] = system: Human immunodeficiency virus 1; test: Calculated Potency against Mutant HIV-1 sV179D/L100I/Y181C; format: functional
[11] = system: Human immunodeficiency virus 1; test: Antiviral activity against Thai 9466, a wild-type clinical strain of HIV in PBMC by P24 assay; format: functional
[12] = system: Human immunodeficiency virus 1; test: Calculated Potency against Mutant HIV-1 sL100I; format: functional
[13] = system: Human immunodeficiency virus 1; test: Plasma Potency against Mutant HIV-1 sV179D/L100I/Y181C; format: functional
MT2 [14] = test: Antiviral activity against RF strain of HIV in MT-2 cells by yield assay; format: functional; conditions: Homo sapiens
[15] = system: Human immunodeficiency virus 1; test: Plasma Potency against Mutant HIV-1 K103N; format: functional; conditions: Human immunodeficiency virus 1, Plasma
[16] = system: Human immunodeficiency virus 1; test: Plasma antiviral activity was evaluated for RF strain of HIV-1; format: functional
Homo sapiens [17] = species: Homo sapiens; test: (§1) percentage of the free compound in tissue culture medium; format: functional
MT2 [18] = test: Antiviral activity against HIV-2 in MT-2 cells by yield assay; format: functional; conditions: Homo sapiens
Homo sapiens [19] = species: Homo sapiens; test: (§2) percentage of the free compound in human serum; format: functional
[20] = system: Human immunodeficiency virus 1; test: Potency against Mutant HIV-1 sL100I; format: functional
[21] = system: Human immunodeficiency virus 1; test: Potency against Mutant HIV-1 K103N; format: functional
[22] = system: Human immunodeficiency virus 1; test: Potency against Mutant HIV-1 sV179D/L100I/Y181C; format: functional
MT2 [23] = test: Antiviral activity against E, Zidovudine resistant clinical strain of HIV in MT-2 cells by yield assay; format: functional; conditions: Homo sapiens
[24] = system: Human immunodeficiency virus 1; test: Calculated Potency against Mutant HIV-1 K103N; format: functional
[25] = system: Human immunodeficiency virus 1; test: Plasma Potency against Mutant HIV-1 sL100I; format: functional; conditions: Human immunodeficiency virus 1, Plasma
MT2 [26] = test: Protein Binding was evaluated by PB shift in MT-2 by RNA assay; format: functional; conditions: Homo sapiens
Homo sapiens [27] = species: Homo sapiens; test: as §2; format: cell-free
Homo sapiens [28] = species: Homo sapiens; test: as §1
[29] = system: Human immunodeficiency virus 1; test: Compound was evaluated for antiviral activity against L100I mutant virus; format: functional
[30] = system: Human immunodeficiency virus 1; test: Antiviral activity against A018C, Zidovudine resistant clinical strain of HIV in PBMC by P24 assay; format: functional
[31] = system: Human immunodeficiency virus 1; test: Compound was evaluated for the inhibition of wide-type RF strain of HIV-1; format: functional

Compound	IC90 [1]	IC90 [2]	IC90 ([3]; Human immunodeficiency virus 1)	IC90 [4]	IC90 [5]	IC50 [6]	further results
O=C1Nc2ccc(F)c(Cl)c2[C@@](C#CC2CC2)(C(F)(F)F)N1	16 nM	27 nM	18 nM	2.7 nM	178 nM	59 nM	–
O=C1Nc2ccc(Cl)cc2[C@@](C#CC2CC2)(C(F)(F)F)N1 (stereo in doubt; 14) [listing 1 of 2 here]	18 nM	–	–	2.7 nM	336 nM	111 nM	IC90 [3]: 22 nM
O=C1Nc2ccc(F)cc2[C@@](C#CC2CC2)(C(F)(F)F)N1	29 nM	24 nM	48 nM	2 nM	566 nM	50 nM	–
CC(C)C#C[C@]1(C(F)(F)F)NC(=O)Nc2ccc(F)c(Cl)c21	13 nM	15 nM	15 nM	3 nM	74 nM	78 nM	–
COc1ccc2c(c1)[C@@](C#CC1CC1)(C(F)(F)F)NC(=O)N2	46 nM	29 nM	40 nM	2.9 nM	396 nM	124 nM	–
O=C1Nc2ccc(Cl)cc2[C@@](C#CC2CC2)(C(F)(F)F)N1 (stereo in doubt)	–	–	–	–	–	–	IC90 [7]: 31 nM
O=C1Nc2ccc(F)cc2[C@@](C#Cc2ccccc2)(C(F)(F)F)N1	677 nM	66 nM	322 nM	6.6 nM	3220 nM	143 nM	–
COc1ccc2c(c1)[C@@](C#Cc1ccccn1)(C(F)(F)F)NC(=O)N2	98 nM	138 nM	338 nM	8.1 nM	5880 nM	237 nM	–
O=C1Nc2ccc(Cl)c(F)c2[C@@](C#CC2CC2)(C(F)(F)F)N1	–	40 nM	18 nM	4.8 nM	151 nM	102 nM	–
CC(C)C#C[C@]1(C(F)(F)F)NC(=O)Nc2ccc(F)c(F)c21 (stereo in doubt; 20) [listing 1 of 2 here]	–	21 nM	–	–	–	–	–
O=C1Nc2cccc(Cl)c2[C@@](C#CC2CC2)(C(F)(F)F)N1	70 nM	18 nM	63 nM	2.5 nM	441 nM	72 nM	–
CC(C)C#C[C@]1(C(F)(F)F)NC(=O)Nc2ccc(F)c(F)c21 (stereo in doubt; 37) [listing 1 of 2 here]	–	–	–	–	–	–	IC90 [8]: 1.6 nM; IC90 [3]: 9 nM
O=C1Nc2ccc(Cl)cc2[C@@](C#Cc2ccccc2)(C(F)(F)F)N1	365 nM	86 nM	250 nM	7.1 nM	3000 nM	277 nM	–
O=C1Nc2ccc(Cl)cc2[C@@](/C=C/C2CC2)(C(F)(F)F)N1	–	–	–	–	–	–	IC90 (MT2 [9]): 2.1 nM; IC90 [10]: 120 nM; IC90 [11]: 0.9 nM; IC90 [12]: 4.3 nM; IC90 [13]: 6000 nM; IC90 (MT2 [14]): 1.9 nM; IC90 [15]: 550 nM; IC90 [16]: 40 nM; Free (Homo sapiens [17]): 39%; IC90 (MT2 [18]): > 2800 nM; Free (Homo sapiens [19]): 2%; IC90 [20]: 11 nM; IC90 [21]: 27 nM; IC90 [22]: 320 nM; IC90 (MT2 [23]): 1.3 nM; IC90 [24]: 11 nM; IC90 [25]: 220 nM; IC90 (MT2 [26]): 3.7 nM
O=C1Nc2ccc(Cl)cc2[C@](C#CC2CC2)(C(F)(F)F)N1	–	–	–	–	–	–	IC90 [8]: 34000 nM; IC90 [7]: 267 nM
O=C1Nc2ccc(F)cc2[C@@](C#Cc2ccccn2)(C(F)(F)F)N1	255 nM	33 nM	483 nM	5 nM	3140 nM	126 nM	–
CC(C)C#C[C@@]1(C(F)(F)F)NC(=O)Nc2ccc(F)c(F)c21	–	–	–	–	–	–	IC90 [8]: 229 nM; IC90 [7]: 1520 nM
O=C1Nc2ccc(F)c(F)c2[C@@](/C=C/C2CC2)(C(F)(F)F)N1	–	–	–	–	–	–	IC90 (MT2 [9]): 2 nM; IC90 [10]: 130 nM; IC90 [12]: 3.1 nM; IC90 [13]: 4300 nM; IC90 (MT2 [14]): 2.7 nM; IC90 [15]: 370 nM; IC90 [16]: 33 nM; IC90 (MT2 [18]): > 2800 nM; IC90 [20]: 5.9 nM; Free (Homo sapiens [27]): 3%; IC90 [21]: 21 nM; IC90 [22]: 250 nM; IC90 (MT2 [23]): 2.9 nM; IC90 [24]: 11 nM; IC90 [25]: 100 nM; IC90 (MT2 [26]): 3.5 nM; Free (Homo sapiens [28]): 53%
O=C1Nc2ccc(F)c(F)c2[C@@](C#CC2CC2)(C(F)(F)F)N1 (stereo in doubt; 13) [listing 1 of 2 here]	12 nM	–	13 nM	2.1 nM	119 nM	74 nM	–
CC(C)Nc1cccnc1N1CCN(C(=O)c2cc3cc(NS(C)(=O)=O)ccc3[nH]2)CC1 [DELAVIRDINE]	–	–	1000 nM	37 nM	38000 nM	–	–

Compound	IC90 [1]	IC90 [2]	IC90 ([3]; Human immunodeficiency virus 1)	IC90 [4]	IC90 [5]	IC50 [6]	further results
O=C1Nc2ccc(Cl)c(Cl)c2[C@@](C#CC2CC2)(C(F)(F)F)N1	–	88 nM	18 nM	8 nM	196 nM	166 nM	–
COc1ccc2c(c1)[C@@](C#Cc1ccccc1)(C(F)(F)F)NC(=O)N2	462 nM	42 nM	283 nM	3.2 nM	3590 nM	219 nM	–
O=C1Nc2ccc(F)c(F)c2[C@@](C#CC2CC2)(C(F)(F)F)N1 (stereo in doubt) [listing 1 of 2 here]	–	–	–	–	–	–	Free (Homo sapiens [27]): 2.8%; Free (Homo sapiens [28]): 37%; IC90 [7]: 18 nM
O=C1Nc2ccc(F)c(F)c2[C@](C#CC2CC2)(C(F)(F)F)N1	–	–	–	–	–	–	IC90 [8]: 101 nM; IC90 [7]: 6600 nM
CC(C)C#C[C@]1(C(F)(F)F)NC(=O)Nc2ccc(F)cc21	17 nM	86 nM	27 nM	2.6 nM	891 nM	39 nM	–
O=C1Nc2cccc(F)c2[C@@](C#CC2CC2)(C(F)(F)F)N1	108 nM	14 nM	89 nM	1.4 nM	917 nM	62 nM	–
O=C1Nc2ccc(F)c(F)c2[C@@](C#Cc2ccccc2)(C(F)(F)F)N1	256 nM	43 nM	191 nM	6.2 nM	1340 nM	181 nM	–
CCC#C[C@]1(C(F)(F)F)NC(=O)Nc2ccc(F)cc21	–	25 nM	71 nM	2.5 nM	710 nM	54 nM	IC90 [29]: 74 nM
O=C1Nc2ccc(F)c(F)c2[C@@](C#CC2CC2)(C(F)(F)F)N1 (stereo in doubt) [listing 2 of 2 here]	–	–	–	–	–	–	IC90 (MT2 [9]): 1.3 nM; IC90 [10]: 41 nM; IC90 [11]: 1.9 nM; IC90 [12]: 3 nM; IC90 [13]: 1460 nM; IC90 (MT2 [14]): 2.3 nM; IC90 [15]: 140 nM; IC90 [16]: 18 nM; IC90 [30]: 1.6 nM; IC90 (MT2 [18]): > 950 nM; IC90 [20]: 8 nM; IC90 [31]: 1.3 nM; IC90 [21]: 11 nM; IC90 [3]: 11 nM; IC90 [22]: 110 nM; IC90 (MT2 [23]): 1.7 nM; IC90 [24]: 4 nM; IC90 [25]: 110 nM; IC90 (MT2 [26]): 6.9 nM
CC(C)C#C[C@]1(C(F)(F)F)NC(=O)Nc2ccc(F)c(F)c21 (stereo in doubt; 20) [listing 2 of 2 here]	10 nM	–	14 nM	2.1 nM	139 nM	91 nM	–
CC(C)C#C[C@]1(C(F)(F)F)NC(=O)Nc2ccc(Cl)cc21	28 nM	90 nM	22 nM	3 nM	653 nM	281 nM	–
O=C1Nc2ccc(F)c(F)c2[C@@](C#Cc2ccccn2)(C(F)(F)F)N1	37 nM	24 nM	109 nM	2 nM	1310 nM	68 nM	–
O=C1Nc2ccc(F)c(F)c2[C@@](C#CC2CC2)(C(F)(F)F)N1 (stereo in doubt; 13) [listing 2 of 2 here]	–	19 nM	–	–	–	–	–
O=C1Nc2ccc(Cl)cc2[C@@](C#Cc2ccccn2)(C(F)(F)F)N1	64 nM	79 nM	160 nM	3.4 nM	3730 nM	129 nM	–
CCC#C[C@]1(C(F)(F)F)NC(=O)Nc2ccc(Cl)cc21	–	83 nM	26 nM	3.3 nM	826 nM	110 nM	–
O=C1Nc2ccc(Cl)cc2[C@@](C#CC2CC2)(C(F)(F)F)N1 (stereo in doubt; 14) [listing 2 of 2 here]	–	41 nM	–	–	–	–	–
CC(C)C#C[C@]1(C(F)(F)F)NC(=O)Nc2ccc(F)c(F)c21 (stereo in doubt; 37) [listing 2 of 2 here]	–	–	–	–	–	–	IC90 [7]: 15 nM
Cc1ccnc2c1NC(=O)c1cccnc1N2C1CC1 [NEVIRAPINE]	–	100 nM	5100 nM	50 nM	10200 nM	–	–
COc1ccc2c(c1)[C@@](C#CC(C)C)(C(F)(F)F)NC(=O)N2	28 nM	42 nM	56 nM	3.8 nM	599 nM	401 nM	–

— ChEMBL document CHEMBL1133185, “Inhibition of clinically relevant mutant variants of HIV-1 by quinazolinone non-nucleoside reverse transcriptase inhibitors” (J Med Chem, 2000)
